Source: patent US8969325B2, “TRPV1 antagonists” (AbbVie Inc., priority 2011, dated 2015)

Assays:
human TRPV1 [1] = molecular target: T1, human TRPV1 (Homo sapiens (Human), UniProt Q8NER1); experiment: Acid Activation Assay (pH 5.0, intracellular Ca2+, FLIPR); type: cell-based; details: percentage of the maximal pH 5.0-induced response remaining; recombinant HEK293 hTRPV1 cells; maximum concentration tested 37.5 μM
Summary of the method: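 HEK293 cells stably expressing recombinant hTRPV1, loaded with Calcium-4 dye 90-120 min at 25° C. Compounds added over a 12-point half-log range (top 37.5 μM), then pH 5.0 DPBS/MES challenge after 3 min; FLIPR peak fluorescence over baseline given as % of maximal pH 5.0 response.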

rats [2] = experiment: Rat acute capsaicin-induced flinching behavior; type: in vivo; details: 1 h, oral dose given as 100 nmol/kg, capsaicin 2.5 μg into hind paw one hour after compound, five minute observation, relative to control-treated animals, read-out: % effect (percent reduction in the number of flinching behaviors)
Procedure: Rats were placed in individual observation cages. Following an acclimation period of 30 minutes, selected compounds were administered orally at a dose of 100 nmol/kg in a vehicle (10% ethanol/20% Tween 80/70% polyethylene glycol-400) at a volume of 2 mL/kg. One hour after administration of the compound, 2.5 μg of capsaicin in a 10 μL solution of 10% ethanol/90% hydroxypropyl-β-cyclodextrin was injected subcutaneously into the dorsal aspect of the right hind paw. The observation cage was then suspended above mirrors in order to facilitate observation. […] The number of flinching behaviors of the injured paw was recorded during the five minute observation period (Gilchrist, H. D.; Allard, B. L.; Simone, D. A.; Enhanced withdrawal responses to heat and mechanical stimuli following intraplantar injection of capsaicin in rats. Pain, 1996, 67, 179-188). The percent reduction in the number of flinching behaviors produced from oral administration of the test compounds relative to control-treated animals (% effect) is reported in Table 2.

rats [3] = experiment: Sodium iodoacetate-induced knee joint osteoarthritic pain model (hind limb grip force); type: in vivo; details: rat, po, single acute dose, 1 hour after administration, 20 days after sodium iodoacetate, read-out: % effect (% return to normalcy of hind limb grip force)
Procedure: Unilateral knee joint osteoarthritis was induced in the rats by a single intra-articular (i.a.) injection of sodium iodoacetate (3 mg in 0.05 mL sterile isotonic saline) into the right knee joint cavity under light isoflurane anesthesia using a 26 G needle. […] Pain behavioral assessment of hind limb grip force was conducted by recording the maximum compressive force exerted on the hind limb strain gauge setup, in a commercially available grip force measurement system (Columbus Instruments, Columbus, Ohio). The grip force data was converted to a maximum hindlimb cumulative compressive force (CFmax) (gram force)/kg body weight for each animal. The analgesic effects of test compounds were determined 20 days following the i.a. injection of sodium iodoacetate. The vehicle control group for each compound being tested was assigned 0% whereas the age matched naïve group was assigned as being 100% (normal). The % effect for each dose group was then expressed as % return to normalcy compared to the naïve group. Test compounds were administered orally in 10% ethanol/20% Tween 80/70% polyethylene glycol-400 vehicle at a volume of 2 mL/kg. The assessment of the analgesic effects of test compounds was made 1 hour following oral administration. The assessment of the analgesic effects of test compounds can be made following a single dose or following repeated administration wherein the frequency of dosing is 1 to 2 times daily. The duration of such repeated daily dosing may last for any time greater than one day. A typical duration of repeated daily dosing is about 5 days to about 12 days.

human TRPV1 [4] = molecular target: T1, human TRPV1; experiment: Capsaicin Activation Assay (intracellular Ca2+, FLIPR); type: cell-based; details: recombinant HEK293 cells expressing hTRPV1, 50 nM capsaicin
Summary of the method: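 Stably transfected HEK293 cells expressing human TRPV1 cDNA, plated the day before in poly-D-lysine plates. Compounds serially diluted from 10 mM DMSO stocks; intracellular Ca2+ fluorescence read on FLIPR at 1 to 5 second intervals.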

rats [5] = experiment: Rat tail immersion assay of noxious thermosensation; type: in vivo; details: morphine 6 mg/kg i.p. in saline, 55° C. water bath, relative to vehicle control
Procedure: Compounds were tested for their effects on noxious thermosensation using the tail immersion assay. Testing was performed one hour following oral administration of 100 μmol/kg of the compound in 10% ethanol/20% Tween-80/70% PEG-400 (2 mL/kg). Mophine (6 mg/kg) was administered interperitoneally (i.p.) using saline (2 mL/kg) as the vehicle. For testing, a circulating water bath was heated to 55° C. Thirty to sixty minutes post dosing, the rats were handled for a few seconds to calm them down and then cupped with their back against the testers hand at a slight angle with head facing away from tester. With rat in one hand and a 0.01 second stopwatch in the other hand, the tail was quickly immersed 6-8 cm in water bath or to a distance leaving 2-3 cm of tail out of water. The timer was started simultaneously. When the rat flinched or attempted withdrawal, timer was immediately stopped and the rat's tail was quickly removed from water bath. This response latency (in seconds) was recorded. Process was repeated 3 times with 3-4 minutes between readings for a final average.
For a given compound, a percent increase in the average response latency (in seconds) for tail withdrawal relative to a vehicle control was determined % increase=[(tc−tv)/tv]×100% […]
Table 1 reports the % increase in tail withdrawal latency measured for the compounds tested. […]

T1 sequence (Q8NER1 whole entry): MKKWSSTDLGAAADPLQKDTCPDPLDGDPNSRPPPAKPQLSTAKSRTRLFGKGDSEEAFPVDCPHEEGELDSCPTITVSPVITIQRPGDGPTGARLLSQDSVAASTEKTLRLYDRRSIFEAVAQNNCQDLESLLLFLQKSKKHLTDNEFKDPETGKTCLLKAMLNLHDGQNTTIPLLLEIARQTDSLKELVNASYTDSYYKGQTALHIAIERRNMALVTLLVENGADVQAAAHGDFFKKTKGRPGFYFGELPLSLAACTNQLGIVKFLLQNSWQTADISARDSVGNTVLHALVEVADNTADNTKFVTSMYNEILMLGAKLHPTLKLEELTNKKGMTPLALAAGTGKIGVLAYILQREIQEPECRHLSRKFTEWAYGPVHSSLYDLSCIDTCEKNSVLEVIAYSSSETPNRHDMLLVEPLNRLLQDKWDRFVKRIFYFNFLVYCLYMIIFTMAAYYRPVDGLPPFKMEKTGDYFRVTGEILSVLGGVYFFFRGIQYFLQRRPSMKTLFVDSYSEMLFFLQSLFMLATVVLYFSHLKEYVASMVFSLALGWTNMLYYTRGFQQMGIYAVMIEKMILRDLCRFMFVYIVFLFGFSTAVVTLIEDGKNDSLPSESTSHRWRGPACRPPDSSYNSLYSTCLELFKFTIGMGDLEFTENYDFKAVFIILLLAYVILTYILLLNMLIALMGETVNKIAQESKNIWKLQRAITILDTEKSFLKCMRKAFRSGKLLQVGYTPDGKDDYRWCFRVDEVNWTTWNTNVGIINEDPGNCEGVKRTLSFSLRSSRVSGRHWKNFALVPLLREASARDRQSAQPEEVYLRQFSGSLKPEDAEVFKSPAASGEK

SMILES	human TRPV1 H^+ (max % remain) (human TRPV1 [1]) [%]	inhibition in vivo at 0.1 µmol/kg (rats [2]) [%]	inhibition in vivo at 13 mg/kg (rats [3]) [%]	IC50 (human TRPV1 [4]) [nM]	inhibition in vivo at 10 mg/kg (rats [3]) [%]	% Increase in tail withdrawal latency (rats [5])
CN1Cc2ccc(NC(=O)N[C@@H]3C[C@](C)(C(F)(F)F)Oc4ccccc43)cc2NC1=O [Example 18, 1-(3-methyl-2-oxo-1,2,3,4-tetrahydroquinazolin-7-yl)-3-[(2R,4R)-2-methyl-2-(trifluoromethyl)-3,4-dihydro-2H-chromen-4-yl]urea]	51	64	62	48	–	–
Cn1c(=O)ccc2c(NC(=O)N[C@@H]3CC(C)(C)Oc4ccc(F)cc43)cccc21 [Example 24, 1-[(4R)-6-fluoro-2,2-dimethyl-3,4-dihydro-2H-chromen-4-yl]-3-(1-methyl-2-oxo-1,2-dihydroquinolin-5-yl)urea]	60	58	–	21	–	–
Cn1c(=O)ccc2c(NC(=O)N[C@@H]3CC(CF)(CF)Oc4cc(F)ccc43)cccc21 [Example 27, 1-[(4R)-7-fluoro-2,2-bis(fluoromethyl)-3,4-dihydro-2H-chromen-4-yl]-3-(1-methyl-2-oxo-1,2-dihydroquinolin-5-yl)urea]	42	33	–	21	–	–
Cn1c(=O)ccc2c(NC(=O)N[C@@H]3C[C@](C)(C(F)F)Oc4ccccc43)cccc21 [Example 28, 1-[(2R,4R)-2-(difluoromethyl)-2-methyl-3,4-dihydro-2H-chromen-4-yl]-3-(1-methyl-2-oxo-1,2-dihydroquinolin-5-yl)urea]	53	81	–	12	–	–
CC1(C)C[C@@H](NC(=O)Nc2ccc3c(c2)NC(=O)CC3)c2ccc(F)c(F)c2O1 [Example 33, 1-[(4R)-7,8-difluoro-2,2-dimethyl-3,4-dihydro-2H-chromen-4-yl]-3-(2-oxo-1,2,3,4-tetrahydroquinolin-7-yl)urea]	42	59	–	20	37	–
CN1C(=O)CCc2ccc(NC(=O)N[C@@H]3CCc4cc(C(F)(F)F)ccc43)cc21 [Example 36, 1-(1-methyl-2-oxo-1,2,3,4-tetrahydroquinolin-7-yl)-3-[(1R)-5-(trifluoromethyl)-2,3-dihydro-1H-inden-1-yl]urea]	66	60	–	34	–	–
CN1C(=O)CCc2ccc(NC(=O)N[C@@H]3CCOc4cc(C(F)(F)F)ccc43)cc21 [Example 37, 1-(1-methyl-2-oxo-1,2,3,4-tetrahydroquinolin-7-yl)-3-[(4R)-7-(trifluoromethyl)-3,4-dihydro-2H-chromen-4-yl]urea]	60	78	43	50	–	–
CC1(C)C[C@@H](NC(=O)Nc2ccc3c(c2)NC(=O)CO3)c2ccc(F)cc2O1 [Example 38, 1-[(4R)-7-fluoro-2,2-dimethyl-3,4-dihydro-2H-chromen-4-yl]-3-(3-oxo-3,4-dihydro-2H-1,4-benzoxazin-6-yl)urea]	92	69	–	56	63	–
CC1(C)C[C@@H](NC(=O)Nc2ccc3c(c2)NC(=O)CC3)c2ccc(F)cc2O1 [Example 221, 1-[(4R)-7-fluoro-2,2-dimethyl-3,4-dihydro-2H-chromen-4-yl]-3-(2-oxo-1,2,3,4-tetrahydroquinolin-7-yl)urea]	39	53	–	1600	–	–
C[C@]1(CF)C[C@@H](NC(=O)Nc2ccc3c(c2)NC(=O)CC3)c2ccc(Cl)cc2O1 [Example 241, 1-[(2R,4R)-7-chloro-2-(fluoromethyl)-2-methyl-3,4-dihydro-2H-chromen-4-yl]-3-(2-oxo-1,2,3,4-tetrahydroquinolin-7-yl)urea]	54	53	–	130	–	–
CN1CC[C@]23c4c5ccc(O)c4O[C@H]2[C@@H](O)C=C[C@H]3[C@H]1C5 [Morphine, morphine]	–	–	–	–	–	+++ (greater than or equal to 25% increase)
